Data taken from patent US4401666A (priority 1982, dated 1983).

Columns and labels:
Yeast Group = experiment: Broth dilution growth inhibition (MIC), isolates from mastitic cows; format: cell-based; settings: 37° C., 18 h, 5 isolates
Escherichia coli = test system: Escherichia coli
Method: (§1) Bacterial isolates for these studies were obtained from the New York State Mastitis Control Program, a division of veterinary clinical services of the New York State College of Veterinary Medicine, Cornell University. Samples were from cows with clinical mastitis or from milk cows that were cultured for a routine herd survey. Mastitis pathogens were identified by the use of standard bacteriologic technique^(1).
(§2) Concentrations inhibiting growth by 50% were determined using broth dilution test procedures^(2). Briefly 0.1 ml of cultures containing approximately 9×10^6 organisms/ml were inoculated into 10 mls of Tryptose-soy broth^(3) containing either 0, 1, 10, 100, or 1000 ppm of zinc pyridine-2-thione-N-oxide. These tubes were incubated at 37° C. for 18 hours and optical densities were read at 550 nanometers. Blanks for each test level consisted of a Tryptose-soy broth tube with the same concentration of test material. Concentrations of test material inhibiting growth by 50% were computed by probit analysis^(4).

Pseudomonas aeruginosa = settings: 37° C., 18 h, 2 isolates
Method: as §1, §2

Klebsiella pneumoniae = test system: Klebsiella pneumoniae
Method: as §1, §2

[1] = test system: microorganisms which cause bovine mastitis; settings: broth
Method: as §1, §2

Staphylococcus aureus = settings: 37° C., 18 h, 5 isolates
Method: as §1, §2

S. aureus = experiment: MIC in sterile, homogenized, skim milk; format: cell-based, Staphylococcus aureus; settings: 37° C., 4 h
Method: (§3) Cultures of E. coli and S. aureus were isolated from mammary glands of cows with mastitis. Cultures were streaked on blood agar plates and incubated for 24 hours at 37° C. Colonies from these plates were inoculated into nutrient broth tubes and incubated at 37° C. overnight. One-tenth milliliter aliquots of these cultures were inoculated into 10 milliliter tubes of sterile, homogenized, skim milk containing various concentrations of zinc pyridine-2-thione-N-oxide. The concentrations of this active compound ranged from 0.01 ppm to 100 ppm and were made by serially diluting a 1% by weight aqueous suspension of zinc pyridine-2-thione-N-oxide in 10 milliliter portions of sterile skim milk.
(§4) The milk tubes containing bacteria and zinc pyridine-2-thione-N-oxide were incubated in a shaking water bath at 37° C. for 4 hours; at the end of the incubation period, 0.1 ml of the milk incubate was added to 2 ml of soft agar (0.75% by weight agar and the rest being water) and plated on blood agar plates. These plates were incubated at 37° C. for 18 hours and the microorganisms present on each plate were counted with an NBS Automatic Colony Counter.

[2] = test system: udder of healthy, lactating cow; settings: bovine, in vivo
[3] = bovine, in vivo
[4] = test system: udder of normal, lactating cows; settings: bovine, in vivo
rats = settings: cited from earlier work
E. coli = experiment: MIC in sterile, homogenized, skim milk; format: cell-based, Escherichia coli; settings: 37° C., 4 h
Method: as §3, §4

[5] = Tryptose-soy broth, 37° C., 18 h, 5 isolates
[6] = Tryptose-soy broth, 37° C., 18 h, 3 isolates

With [Na+].[O-][n+]1ccccc1[S-] [sodium pyridine-2-thione-N-oxide, 2-pyridinethiol-1-oxide, Na salt] the “50% by Weight Growth Inhibited” value (Yeast Group; Table 1A, broth) was under 1.0, the “50% by Weight Growth Inhibited” value (Escherichia coli; Table 1A, broth, 37° C., 18 h, 5 isolates) was 3.4 ± 0.8 and the “50% by Weight Growth Inhibited” value (Pseudomonas aeruginosa; Table 1A, broth) was 38.0 ± 5.2. For the same molecule, the “50% by Weight Growth Inhibited” value (Klebsiella pneumoniae; Table 1A, broth, 37° C., 18 h, 3 isolates) was 5.2 ± 0.8, the “effectiveness against microorganisms which cause bovine mastitis” value [1] was “effective” and the “50% by Weight Growth Inhibited” value (Staphylococcus aureus; Table 1A, broth) was under 1.0.
In the case of [O-]n1ccccc1=S.[O-]n1ccccc1=S.[Zn+2] [zinc pyridine-2-thione-N-oxide, bis[1-hydroxy-2(1H)pyridinethionato]zinc], the “MIC at 95% Inhibition of Growth” value (S. aureus) is reported as 10 ppm, the “MIC at 100% Inhibition of Growth” value (S. aureus) is reported as 100 ppm and the “change in CMT scores” value [2] is reported as “very slight rise”. The “effect on CMT scores” value [2] was “no effect”, the “effect on other physical observations” value [2] was “no effect” and the “firmness of the udder to palpation” value [2] was “increased firmness of the udder to palpation”. The “irritation caused to the udder” value [2] was “low irritation”, the “50% by Weight Growth Inhibited (concentration inhibiting growth by 50%)” value (Yeast Group; Tryptose-soy broth) was under 1.0 ppm and the “100% by Weight Growth Inhibited (MIC)” value (Yeast Group; Tryptose-soy broth) was 3-6 ppm. For the same molecule, the “disappearance from the milk” value [3] was “relative quick disappearance from the milk”, the “residual amounts in milk expected at lower infused amounts” value [3] was “may be expected to be lower” and the “residual content in milk, summary” value [3] was “very low levels”. The “50% by Weight Growth Inhibited (concentration inhibiting growth by 50%)” value (Escherichia coli; [5]) was 2.5 ± 0.5 ppm, the “100% by Weight Growth Inhibited (MIC)” value (Escherichia coli; [5]) was 13-20 ppm and the “effectiveness against E. coli” value (Escherichia coli; broth) was “especially effective”. The “50% by Weight Growth Inhibited (concentration inhibiting growth by 50%)” value (Pseudomonas aeruginosa; Tryptose-soy broth) was 9.6 ± 6.4 ppm, the “100% by Weight Growth Inhibited (MIC)” value (Pseudomonas aeruginosa; Tryptose-soy broth) was 80-100 ppm and the “50% by Weight Growth Inhibited (concentration inhibiting growth by 50%)” value (Klebsiella pneumoniae; [6]) was 2.1 ± 0.3 ppm. For the same molecule, the “100% by Weight Growth Inhibited (MIC)” value (Klebsiella pneumoniae; [6]) was 10-20 ppm, the “effectiveness against K. pneumoniae” value (Klebsiella pneumoniae; broth) was “especially effective” and the “effectiveness against microorganisms which cause bovine mastitis” value [1] was “effective”. For the same molecule, the “50% by Weight Growth Inhibited (concentration inhibiting growth by 50%)” value (Staphylococcus aureus; Tryptose-soy broth) was under 1.0 ppm, the “100% by Weight Growth Inhibited (MIC)” value (Staphylococcus aureus; Tryptose-soy broth) was 5-10 ppm and the “CMT scores, overall” value [4] was “increased CTM scores”. The “CMT values at 504 hours after the first dose” value [4] was “Normal values”, the “adverse effects on cow's udder” value [4] was “some adverse effects on cow's udder” and the “change in CMT scores” value [4] was “increase”. The “flakes and clots in milk” value [4] was “produced flakes and clots in milk”, the milk output [4] was “depressed milk output” and the milk production [4] was “reduced more dramatically than the 1% infusion”. The “overall effects compared with 1% infusion” value [4] was “in general similar to 1% infusion except with increased severity”, the systemic effects [4] was “no systemic effects were noted” and the “warmth of the udder” value [4] was “felt warm”. The LD50 (rats) was 200 mg/kg, the “MIC at 95% Inhibition of Growth” value (E. coli) was 10 ppm and the “MIC at 100% Inhibition of Growth” value (E. coli) was 100 ppm.
